The results in this text go back to patent US20250296959A1, “B7-H3 TARGETING PEPTIDES AND CONSTRUCTS THEREOF” (Mariana Oncology Inc., priority 2024, published 2025).

Starred links: 1 amine or outer side, 2 acyl side, 3 side chain; linkers in the order of their positions; H or OH if unused. Positions of bridges follow the written chain, without caps; N, C: chain ends. Non-standard residues stand in square brackets, D forms with d. Residues, ends and D or L forms follow the SMILES beside them. Groups on a side chain read outwards from the residue. *: point of attachment. X2 = O=C(O)CN1CCN(CC(=O)O)CCN(CC(=O)NCCOCCOCCOCCOCC(=O)*)CCN(CC(=O)O)CC1; X12 = O=C(O)CN1CCN(CC(=O)O)CCN([C@@H](CCC(=O)*)C(=O)O)CCN(CC(=O)O)CC1; Ala(piperidin-4-yl) = O=C([C@H](CC1CCN([*:3])CC1)N[*:1])[*:2]; Phe(3-CH2NH2) = O=C([C@H](Cc1cccc(CN[*:3])c1)N[*:1])[*:2]; DOTA = O=C(O)CN1CCN(CC(=O)O)CCN(CC(=O)*)CCN(CC(=O)O)CC1; Phe(4-COOH) = N[C@@H](Cc1ccc(C(=O)O)cc1)C(=O)O; Trp(5-F) = N[C@@H](Cc1c[nH]c2ccc(F)cc12)C(=O)O; Trp(2-Me) = Cc1[nH]c2ccccc2c1C[C@H](N)C(=O)O; γGlu = O=C(O)[C@H](CCC(=O)[*:2])N[*:1]; 1Nal = N[C@@H](Cc1cccc2ccccc12)C(=O)O; Ala(4-THP) = N[C@@H](CC1CCOCC1)C(=O)O; Val(3-OH) = CC(C)(O)[C@H](N)C(=O)O; Pen = CC(C)(S)[C@H](N)C(=O)O; Tle = CC(C)(C)[C@H](N)C(=O)O; hLeu = CC(C)CC[C@H](N)C(=O)O; hSer = N[C@@H](CCO)C(=O)O; Nle = CCCC[C@H](N)C(=O)O; Orn = NCCC[C@H](N)C(=O)O; Dab = NCC[C@H](N)C(=O)O

The assay has as its target T1, human 4lg B7-H3 (Homo sapiens, UniProt Q5ZPR3).
T1 sequence (Q5ZPR3 29-534): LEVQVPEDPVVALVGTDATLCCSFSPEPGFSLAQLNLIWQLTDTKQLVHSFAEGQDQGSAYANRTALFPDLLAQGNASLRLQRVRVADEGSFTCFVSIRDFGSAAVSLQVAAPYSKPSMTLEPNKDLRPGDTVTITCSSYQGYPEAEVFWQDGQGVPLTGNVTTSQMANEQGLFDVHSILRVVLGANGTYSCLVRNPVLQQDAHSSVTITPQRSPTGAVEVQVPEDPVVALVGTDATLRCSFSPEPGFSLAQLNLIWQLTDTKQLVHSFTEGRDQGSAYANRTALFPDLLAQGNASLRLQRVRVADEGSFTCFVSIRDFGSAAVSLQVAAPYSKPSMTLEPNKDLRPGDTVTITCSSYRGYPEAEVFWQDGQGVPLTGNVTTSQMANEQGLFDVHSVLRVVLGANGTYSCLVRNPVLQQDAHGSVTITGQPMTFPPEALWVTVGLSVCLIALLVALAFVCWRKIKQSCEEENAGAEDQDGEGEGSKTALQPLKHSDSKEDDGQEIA
The experiment in a line: Affinity determination by surface plasmon resonance (SPR) to 4Ig B7-H3. Conditions: 4Ig B7-H3.

[1] abbreviates: SPR KD—25° C., 25° C. flow cell temperature.
[2] abbreviates: SPR KD—37° C., 37° C. flow cell temperature.

For orientation: Kd means the free concentration of one partner at which half of the binding sites on the other are occupied at equilibrium, for simple one-to-one binding. Low readings indicate a tighter complex, high ones a looser complex. On to `CC(=O)N[C@@H](CCC(C)C)C(=O)N[C@@H](Cc1ccc(O)cc1)C(=O)N[C@H]1CSSC[C@@H](C(=O)N[C@@H](Cc2cccc3ccccc23)C(=O)N[C@@H](Cc2ccccc2)C(=O)N2CCC[C@H]2C(=O)N[C@H](CCCCNC(=O)CC[C@H](NC(=O)CN2CCN(CC(=O)O)CCN(CC(=O)O)CCN(CC(=O)O)CC2)C(=O)O)C(N)=O)NC(=O)[C@H](Cc2ccc(O)cc2)NC(=O)[C@H](C(C)C)NC(=O)[C@H](CC(=O)O)NC(=O)[C@H](CC2CCOCC2)NC(=O)[C@H](CCCCN)NC(=O)CNC(=O)[C@H](C(C)(C)C)NC1=O` [compound 274, Ac-hLeu-Y-C-Tbg-G-K-ThpA-D-V-Y-C-1Nal-F-Pro-dLys(gE-DOTA)-CONH2] (Ac-[hLeu]YC[Tle]GK[Ala(4-THP)]DVYC[1Nal]FP[dK]([γGlu-DOTA])-NH2; disulfide 3-11), for which the Kd under setting [1] was below 1 nM. Still for that read-out and setting: as for `CCCC[C@H](NC(C)=O)C(=O)N[C@@H](Cc1ccc(O)cc1)C(=O)N[C@H]1CSSC[C@@H](C(=O)N[C@@H](Cc2c[nH]c3ccccc23)C(=O)N[C@@H](Cc2ccccc2)C(=O)N[C@@H](CCN)C(=O)N[C@H](CCCCNC(=O)CN2CCN(CC(=O)O)CCN(CC(=O)O)CCN(CC(=O)O)CC2)C(N)=O)NC(=O)[C@H](Cc2ccc(O)cc2)NC(=O)[C@H](C(C)C)NC(=O)[C@H](CC(=O)O)NC(=O)[C@H](Cc2ccc(O)cc2)NC(=O)[C@H](CCCCN)NC(=O)CNC(=O)[C@H](C(C)C)NC1=O` [compound 131, Ac-Nle-Y-C-V-G-K-Y-D-V-Y-C-W-F-Dab-dLys(DOTA)-CONH2] (Ac-[Nle]YCVGKYDVYCWF[Dab][dK](DOTA)-NH2; disulfide 3-11), the figure is 10 to 100 nM.

For `CC(=O)N[C@@H](CCC(C)C)C(=O)N[C@@H](Cc1ccc(O)cc1)C(=O)N[C@H]1CSSC[C@@H](C(=O)N[C@@H](Cc2c[nH]c3ccc(F)cc23)C(=O)N[C@@H](Cc2ccccc2)C(=O)N2CCC[C@H]2C(=O)N[C@H](CCCCNC(=O)CN2CCN(CC(=O)O)CCN(CC(=O)O)CCN(CC(=O)O)CC2)C(=O)O)NC(=O)[C@H](Cc2ccc(O)cc2)NC(=O)[C@H](C(C)C)NC(=O)[C@H](CC(=O)O)NC(=O)[C@H](CC2CCOCC2)NC(=O)[C@H](CCCN)NC(=O)CNC(=O)[C@H](C(C)(C)C)NC1=O` [compound 312, Ac-hLeu-Y-C-Tbg-G-Orn-ThpA-D-V-Y-C-5FW-F-Pro-dLys(DOTA)-COOH] (Ac-[hLeu]YC[Tle]G[Orn][Ala(4-THP)]DVYC[Trp(5-F)]FP[dK](DOTA)-OH; disulfide 3-11), the Kd under setting [1] is 1 to 10 nM.

`CC(=O)N[C@@H](CCC(C)C)C(=O)N[C@@H](Cc1ccc(O)cc1)C(=O)N[C@@H]1C(=O)N[C@@H](C(C)C)C(=O)NCC(=O)N[C@@H](CCCCN)C(=O)N[C@@H](Cc2ccc(O)cc2)C(=O)N[C@@H](CC(=O)O)C(=O)N[C@@H](C(C)C)C(=O)N[C@@H](Cc2ccc(O)cc2)C(=O)N[C@H](C(=O)N[C@@H](Cc2c[nH]c3ccccc23)C(=O)N[C@@H](Cc2ccccc2)C(=O)N[C@H](C(=O)N[C@H](CCCCNC(=O)CN2CCN(CC(=O)O)CCN(CC(=O)O)CCN(CC(=O)O)CC2)C(N)=O)[C@@H](C)O)CSSC1(C)C` [compound 117, Ac-hLeu-Y-Pen-V-G-K-Y-D-V-Y-C-W-F-Thr-dLys(DOTA)-CONH2] (Ac-[hLeu]Y[Pen]VGKYDVYCWFT[dK](DOTA)-NH2; disulfide 3-11) had a Kd under setting [1] of 10 to 100 nM.

`CC(=O)N[C@@H](CCC(C)C)C(=O)N[C@@H](Cc1ccc(O)cc1)C(=O)N[C@H]1CSSC[C@@H](C(=O)N[C@@H](Cc2c(C)[nH]c3ccccc23)C(=O)N[C@@H](Cc2ccccc2)C(=O)N[C@H](C(=O)N[C@H](CCCCNC(=O)CN2CCN(CC(=O)O)CCN(CC(=O)O)CCN(CC(=O)O)CC2)C(=O)O)C(C)(C)O)NC(=O)[C@H](Cc2ccc(O)cc2)NC(=O)[C@H](C(C)C)NC(=O)[C@H](CC(=O)O)NC(=O)[C@H](CC2CCOCC2)NC(=O)[C@H](CC2CCNCC2)NC(=O)CNC(=O)[C@H](C(C)(C)C)NC1=O` [compound 492, Ac-hLeu-Y-C-Tbg-G-PipAla-ThpA-D-V-Y-C-2MeW-F-hydroxyVal-dLys(DOTA)-COOH] (Ac-[hLeu]YC[Tle]G[Ala(piperidin-4-yl)][Ala(4-THP)]DVYC[Trp(2-Me)]F[Val(3-OH)][dK](DOTA)-OH; disulfide 3-11) had a dissociation constant Kd under setting [2] below 1 nM.

For `CC(=O)N[C@@H](CCC(C)C)C(=O)N[C@@H](Cc1ccc(O)cc1)C(=O)N[C@H]1CSSC[C@@H](C(=O)N[C@@H](Cc2c[nH]c3ccc(F)cc23)C(=O)N[C@@H](Cc2ccccc2)C(=O)N[C@H](C(=O)N[C@H](CCCCNC(=O)CC[C@@H](C(=O)O)N2CCN(CC(=O)O)CCN(CC(=O)O)CCN(CC(=O)O)CC2)C(=O)O)C(C)(C)O)NC(=O)[C@H](Cc2ccc(O)cc2)NC(=O)[C@H](C(C)C)NC(=O)[C@H](CC(=O)O)NC(=O)[C@H](CC2CCOCC2)NC(=O)[C@H](CC2CCNCC2)NC(=O)CNC(=O)[C@H](C(C)(C)C)NC1=O` [compound 439, Ac-hLeu-Y-C-Tbg-G-PipAla-ThpA-D-V-Y-C-5FW-F-hydroxyVal-dLys(S-DOTAGA)-COOH] (Ac-[hLeu]YC[Tle]G[Ala(piperidin-4-yl)][Ala(4-THP)]DVYC[Trp(5-F)]F[Val(3-OH)][dK](X12)-OH; disulfide 3-11), under setting [2], the Kd is below 1 nM. In turn, `CC(=O)N[C@@H](CCC(C)C)C(=O)N[C@@H](Cc1ccc(O)cc1)C(=O)N[C@H]1CSSC[C@@H](C(=O)N[C@@H](Cc2c[nH]c3ccc(F)cc23)C(=O)N[C@@H](Cc2ccccc2)C(=O)N2CCC[C@H]2C(N)=O)NC(=O)[C@H](Cc2ccc(O)cc2)NC(=O)[C@H](C(C)C)NC(=O)[C@H](CC(=O)O)NC(=O)[C@H](CC2CCOCC2)NC(=O)[C@H](CCCCNC(=O)CN2CCN(CC(=O)O)CCN(CC(=O)O)CCN(CC(=O)O)CC2)NC(=O)CNC(=O)[C@H](C(C)(C)C)NC1=O` [compound 273, Ac-hLeu-Y-C-Tbg-G-Lys(DOTA)-ThpA-D-V-Y-C-5FW-F-Pro-CONH2] (Ac-[hLeu]YC[Tle]GK(DOTA)[Ala(4-THP)]DVYC[Trp(5-F)]FP-NH2; disulfide 3-11) gave a Kd under setting [1] of 10 to 100 nM.

`CCCC[C@@H]1NC(=O)[C@@H](NC(=O)[C@H](Cc2ccc(O)cc2)NC(=O)[C@H](CCC(C)C)NC(C)=O)CSSC[C@@H](C(=O)N[C@@H](Cc2c[nH]c3ccc(F)cc23)C(=O)N[C@@H](Cc2ccccc2)C(=O)N[C@H](C(=O)N[C@H](CCCCNC(=O)CN2CCN(CC(=O)O)CCN(CC(=O)O)CCN(CC(=O)O)CC2)C(N)=O)[C@@H](C)O)NC(=O)[C@H](Cc2ccc(O)cc2)NC(=O)[C@H](C(C)C)NC(=O)[C@H](CC(=O)O)NC(=O)[C@H](Cc2ccc(O)cc2)NC(=O)[C@H](CCCCN)NC(=O)CNC1=O` [compound 217, Ac-hLeu-Y-C-Nle-G-K-Y-D-V-Y-C-5FW-F-Thr-dLys(DOTA)-CONH2] (Ac-[hLeu]YC[Nle]GKYDVYC[Trp(5-F)]FT[dK](DOTA)-NH2; disulfide 3-11) returned a Kd under setting [1] of 1 to 10 nM.

Under setting [1], `CC(=O)N[C@@H](CCC(C)C)C(=O)N[C@@H](Cc1ccc(O)cc1)C(=O)N[C@H]1CSSC[C@@H](C(=O)N[C@@H](Cc2c[nH]c3ccc(F)cc23)C(=O)N[C@@H](Cc2ccccc2)C(=O)N[C@H](C(=O)N[C@H](CCCCNC(=O)CN2CCN(CC(=O)O)CCN(CC(=O)O)CCN(CC(=O)O)CC2)C(N)=O)[C@@H](C)O)NC(=O)[C@H](Cc2ccc(O)cc2)NC(=O)[C@H](C(C)C)NC(=O)[C@H](CC(=O)O)NC(=O)[C@H](CCO)NC(=O)[C@H](CCCCN)NC(=O)CNC(=O)[C@H](C(C)C)NC1=O` [compound 199, Ac-hLeu-Y-C-V-G-K-hSer-D-V-Y-C-5FW-F-Thr-dLys(DOTA)-CONH2] (Ac-[hLeu]YCVGK[hSer]DVYC[Trp(5-F)]FT[dK](DOTA)-NH2; disulfide 3-11) had a Kd of 1 to 10 nM. As for `CCCC[C@@H]1NC(=O)[C@H](C(C)C)NC(=O)[C@H](CC(=O)O)NC(=O)[C@H](Cc2ccc(C(=O)O)cc2)NC(=O)[C@H](CCCCN)NC(=O)CNC(=O)[C@H](C(C)C)NC(=O)[C@@H](NC(=O)[C@H](Cc2ccc(O)cc2)NC(=O)[C@H](CCC(C)C)NC(C)=O)CSSC[C@@H](C(=O)N[C@@H](Cc2c[nH]c3ccc(F)cc23)C(=O)N[C@@H](Cc2ccccc2)C(=O)N2CCC[C@H]2C(=O)N[C@H](CCCCNC(=O)CN2CCN(CC(=O)O)CCN(CC(=O)O)CCN(CC(=O)O)CC2)C(N)=O)NC1=O` [compound 287, Ac-hLeu-Y-C-V-G-K-4COOHPhe-D-V-Nle-C-5FW-F-Pro-dLys(DOTA)-CONH2] (Ac-[hLeu]YCVGK[Phe(4-COOH)]DV[Nle]C[Trp(5-F)]FP[dK](DOTA)-NH2; disulfide 3-11), the Kd under setting [1] was in the range of 10 to 100 nM. Still for that read-out and setting: as for `CC(=O)N[C@@H](CCC(C)C)C(=O)N[C@@H](Cc1ccc(O)cc1)C(=O)N[C@H]1CSSC[C@@H](C(=O)N[C@@H](Cc2cccc3ccccc23)C(=O)N[C@@H](Cc2ccccc2)C(=O)N2CCC[C@H]2C(N)=O)NC(=O)[C@H](Cc2ccc(O)cc2)NC(=O)[C@H](C(C)C)NC(=O)[C@H](CC(=O)O)NC(=O)[C@H](Cc2cccc(CNC(=O)COCCOCCOCCOCCNC(=O)CN3CCN(CC(=O)O)CCN(CC(=O)O)CCN(CC(=O)O)CC3)c2)NC(=O)[C@H](CCCCN)NC(=O)CNC(=O)[C@H](C(C)(C)C)NC1=O` [compound 257, Ac-hLeu-Y-C-Tbg-G-K-MAF(PEG4-DOTA)-D-V-Y-C-1Nal-F-Pro-CONH2] (Ac-[hLeu]YC[Tle]GK[Phe(3-CH2NH2)](X2)DVYC[1Nal]FP-NH2; disulfide 3-11), the figure is 1 to 10 nM.
